The values that follow come from paper PMC10809383, “Synthesis and migrastatic activity of cytochalasin analogues lacking a macrocyclic moiety” (RSC Medicinal Chemistry, 2023).

Assay type in all cases: cell-based
Assay [1] relates to human melanoma cells (BLM). Nature of the assay: WST-1 viability assay, BLM cells. To be noted: for IC50: Homo sapiens, 72 h treatment, WST-1 assay, 2D culture, 0–50 μM; for selectivity index (SI): MRC-5 versus BLM, 72 h, WST-1. Here is the method:
(§1) In addition, the cytotoxic activity of compounds 17, 20, and 22–30 was assessed by the WST-1 viability assay using BLM (human melanoma) and MRC-5 (noncancerous human fibroblasts) cells growing in a monolayer (2D cultures, Table 2) after 72 h of treatment.
(§2) Human cells from melanoma (BLM) and human lung fibroblasts (MRC-5, Merck, USA) were used to evaluate in vitro cytotoxicity of the prepared compounds. The cells were maintained at the exponential phase of growth (passaging done by trypsin–EDTA solution) in DMEM and MEM, for BLM and MRC-5, respectively, with stable L-glutamine and supplemented with 10% fetal bovine serum (Thermo Fisher Scientific, USA). The cells were kept in an incubator at 37 °C, 5% CO2 in the atmosphere, and 95% humidity.
(§3) The compound cytotoxicity was determined by a WST-1 viability assay (Merck, USA). The amount of 5000 BLM and MRC-5 cells were seeded into individual wells of 96-well plates in 100 μL of cell cultivation media and maintained in an incubator for 16 h. After this period, the cells were treated with a concentration series (0–50 μM) of the tested compounds diluted in another 100 μL of cultivation media, which was added to the wells containing cells and incubated for 72 h. Then, BLM and MRC-5 cell viability was evaluated by WST-1 agent (5% v/v solution in phenol red-free DMEM media), i.e., the cell media was discarded and 100 μL of WST-1 solution was added. After 2 h incubation, the absorbance of formazan, derived from the WST-1 tetrazolium salt was determined spectrophotometrically at 450 nm (reference at 650 nm) by a UV-vis spectrophotometer (Bio-Rad, USA). Untreated cells, cells treated only with a vehicle, and cells treated with cytochalasin B (1) and D (2) served as controls. The measurement occurred in three independent repetitions each of which consisted of three technical replicates. The data were plotted as dose–response curves from which the half-maximal inhibitory concentrations (IC50) were calculated using AAT Bioquest.

For assay [2], the system named is human melanoma cell line BLM. Nature of the assay: Spheroid invasion assay (migrastatic activity). To be noted: 10 µM, 24 h, BLM spheroids in collagen; DMSO control 1.02. Here is the method:
Compounds 17, 20, and 22–30 were screened for their migrastatic activity using a spheroid invasion assay with the human melanoma cell line BLM.[46] Spheroids were formed and subsequently treated with cytochalasin analogues at a concentration of 10 μM for 24 h. CytB (1) and CytD (2) served as reference compounds for comparison. There was no significant increase in cell migration observed for any of the compounds tested. […] However, the effect was less profound than that of the reference compounds 1 and 2.
The spheroid invasion assay was performed following a previously published protocol.[63] Briefly, BLM cells were grown as spheroids using 3D Petri Dish (Microtissues). After 2 days of spheroid formation, 1.5 mg mL^−1 collagen solution (rat tail, collagen type I) was prepared (1.5 mg mL^−1 rat-tail collagen, 1× DMEM, 1% (v/v) FBS) and added at the bottom of a 96-well plate. Spheroids were embedded into the collagen (one spheroid per well) and covered with another layer of the gel. Collagen was polymerized at 37 °C and subsequently overlaid with a cultivation medium. Images of spheroids were taken with Leica TCS SP2 microscope (5×/0.15 dry objective; LAS X Life Science Microscope software) immediately after their seeding into collagen and again after 24 h. The area of the spheroids at 0 and 24 h was measured using FiJi (Rasband, W.S., ImageJ, NIH, Bethesda, MD, USA). Cellular invasiveness was determined as an increase in spheroid area within 24 h. Three independent experiments were conducted with at least 8 spheroids analysed in each experiment. Statistical analysis was performed in GraphPad using one-way ANOVA. For numeric data and representative images from this assay, see ESI, ^† Table S1 and Fig. S1.
Table S1: Spheroid invasion assay with BLM cell line at 10 µM concentration, 24 h.
Figure S1: Representative images of BLM cell spheroid invasion assay with or without
inhibitor. Images were taken at 0 h and 24 h. using a Leica TCS SP2 microscope (5x/0.15
dry objective). DMSO (first column) was used as a control. Scale bar 500 µm.

Assay [3] deals with human fibroblasts (MRC-5). As to the kind of experiment: WST-1 viability assay, MRC-5 cells. To be noted: MRC5, 72 h treatment, WST-1 assay, 2D culture, 0–50 μM. Here is the method: as §1, §2, §3
(In general: Tetrazolium dyes change colour on reduction, which living cells bring about.)

Some results are limits rather than exact numbers.

The IC50 is the concentration at which inhibition is half-maximal. With `COC(=O)[C@@]12C(=O)N[C@@H](Cc3ccccc3)[C@@H]1[C@H](C)C(C)=C[C@@H]2CCOCCc1ccccc1` [Compound 17a, Methyl (1S,3aR,4S,7S,7aR)-1-benzyl-6,7-dimethyl-3-oxo-4-(2-phenethoxyethyl)-1,2,3,4,7,7a-hexahydro-3aH-isoindole-3a-carboxylate], in assay [1], half-maximal inhibition (IC50) required 27.1 ± 1.24 µM and the “selectivity index (SI)” value is 1.1. The same compound returned a rel. spheroid area in assay [2] of 1.21. Moreover, in assay [3], half-maximal inhibition (IC50) was put at 30.5 ± 0.38 µM.
Turning to `COC(=O)[C@@]12C(=O)N[C@@H](Cc3ccccc3)[C@@H]1[C@H](C)C(C)=C[C@@H]2CCOCCc1ccc(OC)cc1` [Compound 17b, Methyl (1S,3aR,4S,7S,7aR)-1-benzyl-4-(2-(4-methoxyphenethoxy)ethyl)-6,7-dimethyl-3-oxo-1,2,3,4,7,7a-hexahydro-3aH-isoindole-3a-carboxylate], the IC50 in assay [1] was determined as 35.3 ± 4.75 µM; in assay [3] it was 40.5 ± 4.65 µM. Further, in assay [1], the “selectivity index (SI)” value is given as 1.1. The same compound came in with a rel. spheroid area in assay [2] of 1.14.
For `COC(=O)[C@@]12C(=O)N[C@@H](Cc3ccccc3)[C@@H]1[C@H](C)C(C)=C[C@@H]2CCOCCc1ccc(C)cc1` [Compound 17c, Methyl (1S,3aR,4S,7S,7aR)-1-benzyl-6,7-dimethyl-4-(2-(4-methylphenethoxy)ethyl)-3-oxo-1,2,3,4,7,7a-hexahydro-3aH-isoindole-3a-carboxylate], in assay [1], the midpoint of inhibition, the IC50, lay at 30.3 ± 4.87 µM and the “selectivity index (SI)” value was determined as 0.71. This compound also returned a rel. spheroid area in assay [2] of 0.93. The IC50 in assay [3] came to 21.5 ± 2.78 µM.
On the same counts, the results for `COC(=O)[C@@]12C(=O)N[C@@H](Cc3ccccc3)[C@@H]1[C@H](C)C(C)=C[C@@H]2CCOCCc1ccc(F)cc1` [Compound 17d, Methyl (1S,3aR,4S,7S,7aR)-1-benzyl-4-(2-(4-fluorophenethoxy)ethyl)-6,7-dimethyl-3-oxo-1,2,3,4,7,7a-hexahydro-3aH-isoindole-3a-carboxylate] are 27.7 ± 2.45 µM, 1.2, 1.24 and 33.5 ± 4.98 µM.
On the same counts, the results for `COC(=O)[C@@]12C(=O)N[C@@H](Cc3ccccc3)[C@@H]1[C@H](C)C(C)=C[C@@H]2CCOCCc1cccc(F)c1` [Compound 17e, Methyl (1S,3aR,4S,7S,7aR)-1-benzyl-4-(2-(3-fluorophenethoxy)ethyl)-6,7-dimethyl-3-oxo-1,2,3,4,7,7a-hexahydro-3aH-isoindole-3a-carboxylate] are 25.9 ± 2.97 µM, 1.2, 0.96 and 31.9 ± 4.02 µM.
As for `COC(=O)[C@@]12C(=O)N[C@@H](Cc3ccccc3)[C@@H]1[C@H](C)C(C)=C[C@@H]2CCOCCc1ccccc1F` [Compound 17f, Methyl (1S,3aR,4S,7S,7aR)-1-benzyl-4-(2-(2-fluorophenethoxy)ethyl)-6,7-dimethyl-3-oxo-1,2,3,4,7,7a-hexahydro-3aH-isoindole-3a-carboxylate], in assay [1], inhibition was half-maximal at 21 ± 4.32 µM (IC50) and the “selectivity index (SI)” value stood at 1.6. The same compound displayed a rel. spheroid area in assay [2] of 0.92. The compound also showed an IC50 in assay [3] of 34.5 ± 4.69 µM.
The like results for `COC(=O)[C@@]12C(=O)N[C@@H](Cc3ccccc3)[C@@H]1[C@H](C)C(C)=C[C@@H]2CCOCCc1ccc(Cl)cc1` [Compound 17g, Methyl (1S,3aR,4S,7S,7aR)-1-benzyl-4-(2-(4-chlorophenethoxy)ethyl)-6,7-dimethyl-3-oxo-1,2,3,4,7,7a-hexahydro-3aH-isoindole-3a-carboxylate] were, in that order, 19.5 ± 1.23 µM, 1.1, 1.17 and 22.2 ± 12.2 µM.
For `COC(=O)[C@@]12C(=O)N[C@@H](Cc3ccccc3)[C@@H]1[C@H](C)C(C)=C[C@@H]2CCOCCc1ccc(Br)cc1` [Compound 17h, Methyl (1S,3aR,4S,7S,7aR)-1-benzyl-4-(2-(4-bromophenethoxy)ethyl)-6,7-dimethyl-3-oxo-1,2,3,4,7,7a-hexahydro-3aH-isoindole-3a-carboxylate], the IC50 in assay [1] and in assay [3] was greater than 50 µM throughout. In assay [2], this compound registered a rel. spheroid area of 1.05.
As for `COC(=O)[C@@]12C(=O)N[C@@H](Cc3ccccc3)[C@@H]1[C@H](C)C(C)=C[C@@H]2CCOCCc1cccc(Br)c1` [Compound 17i, Methyl (1S,3aR,4S,7S,7aR)-1-benzyl-4-(2-(3-bromophenethoxy)ethyl)-6,7-dimethyl-3-oxo-1,2,3,4,7,7a-hexahydro-3aH-isoindole-3a-carboxylate], in assay [1], the IC50 is 24.3 ± 1.82 µM and the “selectivity index (SI)” value is recorded as 1.3. The rel. spheroid area in assay [2] was 1.14. This compound also registered an IC50 in assay [3] of 31.2 ± 6.95 µM.
The like results for `COC(=O)[C@@]12C(=O)N[C@@H](Cc3ccccc3)[C@@H]1[C@H](C)C(C)=C[C@@H]2CCOCCc1ccc([N+](=O)[O-])cc1` [Compound 17j, Methyl (1S,3aR,4S,7S,7aR)-1-benzyl-6,7-dimethyl-4-(2-(4-nitrophenethoxy)ethyl)-3-oxo-1,2,3,4,7,7a-hexahydro-3aH-isoindole-3a-carboxylate] were, in that order, 35.2 ± 2.51 µM, 1.0, 1.12 and 34.7 ± 6.18 µM.
As for `COC(=O)[C@@]12C(=O)N[C@@H](Cc3ccccc3)[C@@H]1[C@H](C)[C@@]1(C)O[C@H]1[C@@H]2CCOCCc1ccccc1` [Compound 22a, Methyl (1aS,2R,2aS,5S,5aR,6S,6aR)-5-benzyl-6,6a-dimethyl-3-oxo-2-(2-phenethoxyethyl)octahydro-2aH-oxireno[2,3-f]isoindole-2a-carboxylate], the IC50 in assay [1] and in assay [3] was greater than 50 µM in each case. The compound also showed a rel. spheroid area in assay [2] of 1.11.
In the case of `COC(=O)[C@@]12C(=O)N[C@@H](Cc3ccccc3)[C@@H]1[C@H](C)[C@@]1(C)O[C@H]1[C@@H]2CCOCCc1ccc(OC)cc1` [Compound 22b, Methyl (1aS,2R,2aS,5S,5aR,6S,6aR)-5-benzyl-2-(2-(4-methoxyphenethoxy)ethyl)-6,6a-dimethyl-3-oxooctahydro-2aH-oxireno[2,3-f]isoindole-2a-carboxylate], the IC50 is 20.6 ± 6.43 µM in assay [1] and greater than 50 µM in assay [3]. In assay [1], the “selectivity index (SI)” value was greater than 2.4. This compound came in with a rel. spheroid area in assay [2] of 1.24.
On to `COC(=O)[C@@]12C(=O)N[C@@H](Cc3ccccc3)[C@@H]1[C@H](C)[C@@]1(C)O[C@H]1[C@@H]2CCOCCc1ccc(Br)cc1` [Compound 22h, Methyl (1aS,2R,2aS,5S,5aR,6S,6aR)-5-benzyl-2-(2-(4-bromophenethoxy)ethyl)-6,6a-dimethyl-3-oxooctahydro-2aH-oxireno[2,3-f]isoindole-2a-carboxylate], for which the IC50 in assay [1] and in assay [3] was greater than 50 µM each time. The same compound returned a rel. spheroid area in assay [2] of 0.98.
With `COC(=O)[C@@]12C(=O)N[C@@H](Cc3ccccc3)[C@@H]1[C@H](C)[C@@](C)(O)[C@@H](O)[C@@H]2CCOCCc1ccccc1` [Compound 23a, Methyl (1S,3aS,4R,5S,6R,7S,7aR)-1-benzyl-5,6-dihydroxy-6,7-dimethyl-3-oxo-4-(2-phenethoxyethyl)octahydro-3aH-isoindole-3a-carboxylate], in assay [1], the IC50 was 9.41 ± 2.52 µM and the “selectivity index (SI)” value turned out to be 2.2. Further, in assay [2], the rel. spheroid area is 1.01. The IC50 in assay [3] was 20.9 ± 2.38 µM.
